Measurements taken from patent US8466172B2, “Stabilization of hypoxia inducible factor (HIF) alpha” (FibroGen, Inc., priority 2001, dated 2013).
Values joined by “and” are separate entries in the source; they are usually repeats but may differ in a detail not shown here. Identical values can stand only once.

Tested on: Wistar rats, acute myocardial infarction (AMI)
Experiment: Cardiac ischemia Experiment I, 4-week study after acute myocardial infarction
Format: in vivo, rat
Settings: for fractional shortening: Treated-MI
Source text: Seventy adult male Wistar rats (200-250 g) were anaesthetized and subjected to left coronary artery occlusion to produce acute myocardial infarction (AMI). Nine animals were subjected to identical surgery without coronary artery ligation. Twenty-four to forty-eight hours after surgery, electrocardiogram (ECG) electrodes were applied to the paws and a 15 MHz linear probe (Acuson Corp., Mountain View Calif.) was applied to the chest to obtain short axis transthoracic echocardiography (2DE) images at the mid-papillary muscle level. The probe was moved cephalad or caudad and angulated until clear endocardial visualization of the left ventricular cavity was detected. Images were obtained using the Sequoia ultrasound system (Acuson). Animals with less than 20% fractional shortening and regional wall motion abnormality on the 2DE were randomized to treatment with compound A (n=14) or vehicle (n=12). The sham controls were also randomized to treatment with compound A (n=4) or vehicle (n=5).
Animals were treated by gavage 2 times per day for the duration of the experiment with compound A at 50 mg/kg or with vehicle alone. Serum level of drug was determined periodically to establish that treated animals received sufficient and consistent amount of drug and that the measured levels were sufficient to inhibit prolyl 4-hydroxylase, a representative 2-oxoglutarate dioxygenase.
Serial 2DE images were obtained weekly. Three short axis 2DE digital clips containing 5 or more systolic and diastolic frames were captured and stored. Two observers blinded to treatment did measurements off-line. For the measurements, the digital images were slowed and frozen at end systole and end diastole. Two systolic and two diastolic frames from each of the three digital clips were measured by consensus and averaged. The anterior wall in systole (AWS) and diastole (AWD), posterior wall in systole (PWS) and diastole (PWD), and left ventricular end systolic (LVESD) and end diastolic (LVEDD) were measured according to the American Society for Echocardiology (ASE) leading-edge method. For consistency, measurements were done from the anterior to the posterior mid points of the left ventricular cavity and were randomly repeated to ensure reproducibility (reproducibility was approximately 96%).
At four weeks of treatment, in vivo hemodynamic measurements were determined, as described below, both before and after infusion (0.2 ml over 1 minute) of […] isoproterenol via the femoral vein. Hearts were then excised and weighed as described below.
To collect in vivo hemodynamic measurements, animals were anaesthetized and the right carotid artery was dissected free from surrounding tissues and canulated with an SPR-671 ultra-miniature pressure transducer (Millar Instruments, Inc., Houston Tex.). The catheter was then advanced into the left ventricle. After steady state was established, baseline heart rate (HR), developed pressure (DP), contractile index (CI), left ventricle systolic pressure (SBP) and end diastolic pressure (LVEDP), and maximal rate of pressure rise and fall (+dP/dt and −dP/dt, respectively) were recorded.
Following hemodynamic measurement, hearts were excised and weighed. Pieces of scarred myocardium, and right ventricle and left ventricle myocardium distant from the site of infarct were dissected out and weighed. Hydroxyproline and proline were determined by the method of Palmerini et al. (1985, J Chromatogr 339:285-92) except that L-azetidine-2-carboxylic acid (Sigma-Aldrich) was substituted for 3,4-dehydroproline as the internal standard.

O=C(O)c1c[nH]c2c(ccc3cccnc32)c1=O [Compound A, 4-oxo-1,4-dihydro-[1,10]phenanthroline-3-carboxylic acid]
Hydroxyproline/proline in infarct scar (4 weeks post-MI): 0.34 ± 0.08 | Hydroxyproline/proline in non-infarct left ventricular myocardium (4 weeks post-MI): 0.12 ± 0.06 | Hydroxyproline/proline in non-infarct right ventricular myocardium (4 weeks post-MI): 0.13 ± 0.02 | +dP/dt (4 weeks post-MI, baseline): 9477 ± 581 mm Hg/sec | Developed pressure (4 weeks post-MI, baseline): 133 ± 6 mm Hg | Systolic BP (4 weeks post-MI, baseline): 143 ± 7 mm Hg | −dP/dt (4 weeks post-MI, baseline): 9978 ± 827 mm Hg/sec | +dP/dt (4 weeks post-MI, isoproterenol): 16830 ± 1195 mm Hg/sec | Developed pressure (4 weeks post-MI, isoproterenol): 121 ± 9 mm Hg | Systolic BP (4 weeks post-MI, isoproterenol): 130 ± 9 mm Hg | −dP/dt (4 weeks post-MI, isoproterenol): 9234 ± 703 mm Hg/sec | fractional shortening (week 0 (baseline)): 10% and 10 ± 0.8% | fractional shortening (week 1): 17 ± 1% | fractional shortening (week 2): 20% and 20 ± 2% | fractional shortening (week 3): 21 ± 2% | fractional shortening (week 4): 21 ± 3% | increase in fractional shortening relative to baseline (week 2): 79%
